# Key:
# [1] = test system: peripheral blood mononuclear cells (PBMC), T cells; test: ELISpot assay, IL-5 release (SFC) after stimulation with a-synuclein epitope pools; assay type: cell-based, human
# Protocol: (§1) Blood from age matched controls and PD patients were obtained and mononuclear cells were isolated by gradient centrifugation.
# (§2) Release of the cytokines gamma-interferon, which measures activation of CD4+ and/or CD8+ T cells, and the interleukin, IL-5, which measures activation of CD4+ T cells was measured by ELISpot assay. […] After 22 hours of stimulation at 37 C, the cells were removed and release of cytokines was measured by colorimetric detection of spot-forming cells (SFC). Confirmed release of cytokine is determined by the presence of a minimum of 20 SFC per million cells.
# (§3) The binding algorithms in SubAim 1 predict how well the peptides would bind to MHC if present, but not if they are present in patients. To determine this, the presence of T cell response against the candidate antigens by patient blood-derived peripheral blood mononuclear cells (PBMC) is assessed by ELISPOT assays upon stimulation with the peptides. This assay detects and quantifies cytokine release (in this case, IFNγ and IL-5) from specific activated T cells.
# (§4) Data were obtained from blood samples (25 ml) from 44 PD patients and 24 age-matched controls. The experiments were conducted blindly. PBMCs from these samples were isolated and exposed to pools comprising the 122 candidate class I and class II antigens and phosphorylated S129 epitopes generated in Subaim 1. For the PBMCs responsive to the pooled peptides, the response was then deconvoluted to identify individual epitopes.
# (§5) PMBC fractions are recovered by standard methods with Ficoll gradient and T cells expansion (Oseroff et al., 2010). The methods for the analysis of T cell reactions and measurement of cytokines production using the enzyme-linked immunosorbent spot (ELISPOT) assay are published in analogous experiments to discover antigens in multiple sclerosis (Lolli et al., 2013) and in hay fever allergens (Oseroff et al., 2010). T cell responses are determined by measuring IFNγ and IL-5 release by ELISPOT. Statistical analysis of differences between populations is expected to be non-parametric and analyzed with the U-Mann-Whitney test. If there were a normal distribution of response, which is a priori unlikely as some patients have no T cell response, with an SD=1, 8 patients per group would be required to provide a p>90% that the study detect a >2 fold difference at a two-sided 0.05 significance level.
# [2] = test system: peripheral blood mononuclear cells (PBMC), T cells; test: ELISpot assay, gamma-interferon release (SFC) after stimulation with a-synuclein epitope pools; assay type: cell-based, human; conditions: for Pool +: IFNg, Pool Stimulated, number of donors with a positive response, Donors tested 1
# Protocol: as §1, §2, §3, §4, §5
# [3] = Patients Summary, PD patients, of donors tested (peptide)
# [4] = Patients Summary, PD patients, single peptide
# [5] = number of donors positive to the single peptide, second 'Pool Stimulated' section (from r296), 12 donors tested
# [6] = peptide + / donors tested (peptide), second 'Pool Stimulated' section (from r296), 12 donors tested
# [7] = single peptide, second 'Pool Stimulated' section (from r296), 12 donors tested
# [8] = Patients Summary, Phospho pool peptides
# [9] = Patients Summary, Phospho pool peptides, 10 donors tested
# [10] = peptides of pool 'Poshpho', 8 donors tested
# [11] = peptides of pool 'Poshpho', 8 donors tested, number of donors positive
# [12] = pool 'Phospho' (phosphorylated peptides)
Substance,"IL-g Peptide + (donors positive to the peptide) [1, 3]","IL-g Response Frequency [1, 4] [%]","IL-g Total SFC [1, 4] [SFC]","IL-g Peptide + [1, 5]","IL-g Response Frequency [1, 6] [%]","IL-g Total SFC [1, 7] [SFC]",Pool + [2],"IFNg Peptide + (donors positive to the peptide) [2, 3]","IFNg Response Frequency [2, 4] [%]","IFNg Total SFC [2, 4] [SFC]","IFNg Peptide + [2, 5]","IFNg Response Frequency [2, 6] [%]","IL-g Avg SFC [1, 4] [SFC]","IFNg Total SFC [2, 7] [SFC]",further results
3521.0001 (PVDPDNEAY; listed as Homo sapiens),0,0,0,0,0,0,0,0,0,0,0,0,,,
3521.002 (AGKTKEGVL; listed as Homo sapiens),1,13,106,0,0,0,0,1,13,98,0,0,106,0,"IFNg Avg SFC [2, 4]: 98 SFC"
3521.0002 (PSEEGYQDY; listed as Homo sapiens),0,0,0,0,0,0,0,0,0,0,0,0,,,"IL-g Response Frequency [1, 8]: 0%; IL-g Total SFC [1, 8]: 0 SFC; IL-g Peptide + (donors positive to the peptide) [1, 9]: 0; IL-g Response Frequency [1, 10]: 0%; IL-g Total SFC [1, 10]: 0 SFC; IL-g Peptide + [1, 11]: 0; Pool + [2, 12]: 0; IFNg Avg SFC [2, 8]: 460 SFC; IFNg Response Frequency [2, 8]: 10%; IFNg Total SFC [2, 8]: 460 SFC; IFNg Peptide + (donors positive to the peptide) [2, 9]: 1; IFNg Response Frequency [2, 10]: 0%; IFNg Total SFC [2, 10]: 0 SFC; IFNg Peptide + [2, 11]: 0"
3521.003 (GSIAAATGFV; listed as Homo sapiens),1,25,40,0,0,0,0,0,0,0,0,0,40,0,
3521.0003 (SIAAATGFV; listed as Homo sapiens),0,0,0,0,0,0,0,0,0,0,1,50,,33.3,"IFNg Avg SFC [2, 7]: 33.3 SFC"
3521.004 (DNEAYEMPSE; listed as Homo sapiens),0,0,0,0,0,0,0,0,0,0,0,0,,,"IL-g Avg SFC [1, 8]: 203 SFC; IL-g Response Frequency [1, 8]: 20%; IL-g Total SFC [1, 8]: 406.3 SFC; IL-g Peptide + (donors positive to the peptide) [1, 9]: 2; IL-g Response Frequency [1, 10]: 0%; IL-g Total SFC [1, 10]: 0 SFC; IL-g Peptide + [1, 11]: 0; Pool + [2, 12]: 0; IFNg Avg SFC [2, 8]: 364 SFC; IFNg Response Frequency [2, 8]: 20%; IFNg Total SFC [2, 8]: 727 SFC; IFNg Peptide + (donors positive to the peptide) [2, 9]: 2; IFNg Response Frequency [2, 10]: 0%; IFNg Total SFC [2, 10]: 0 SFC; IFNg Peptide + [2, 11]: 0"
3521.005 (APGKTKEGVL; listed as Homo sapiens),2,25,137,0,0,0,0,1,13,44,0,0,67.5,0,"IFNg Avg SFC [2, 4]: 44 SFC"
3521.0005 (AVVTGVTAV; listed as Homo sapiens),0,0,0,0,0,0,0,0,0,0,0,0,,0,
3521.006 (VATVAEKTKE; listed as Homo sapiens),0,0,0,0,0,0,1,0,0,0,0,0,,0,
3521.0006 (VLYVGSKTK; listed as Homo sapiens),2,33,168,,,,0,5,83,1519,,,84,,"IFNg Avg SFC [2, 4]: 304 SFC"
352100.45 (KTKKGVVHGV; listed as Homo sapiens),,,,,,,0,,,,,,,,

# Source: patent publication US20170184612A1, “USE OF LEUKOCYTES AND NOVEL BIOMARKERS IN THE DIAGNOSIS, CONFIRMATION, AND TREATMENT OF A NEUROLOGICAL DISORDER” (The Trustees of Columbia University in the City of New York, priority 2014, published 2017)
